Reference: patent publication US9205098B2, “Anti-cancer therapies” (Threshold Pharmaceuticals, Inc., priority 2004, dated 2015)

Experiments:
[1] = test system: tumors derived from HS766-T human pancreatic cancer cells; experiment: HS766-T human pancreatic cancer tumor model in mice; assay type: in vivo, female NMRI nu/nu mice
Description: (§1) A combination of glufosfamide and gemcitabine was administered daily for 7 days to female NMRI nu/nu mice that were carrying tumors derived from HS766-T or As-PC-1 human pancreatic cancer cells. Mice were administered doses of vehicle control (0.9% sodium chloride solution, i.v.), gemcitabine (i.p.), glufosfamide (i.v.) or gemcitabine/glufosfamide combinations once daily for 7 consecutive days. A dose of 1.25 mg/kg was used as the standard dose for gemcitabine throughout the study.

[2] = test system: tumors derived from As-PC-1 human pancreatic cancer cells; experiment: As-PC-1 human pancreatic cancer tumor model in mice; assay type: in vivo, female NMRI nu/nu mice; conditions: glufosfamide i.v., gemcitabine i.p., alone or in combination, once daily for 7 days
Description: as §1

[3] = test system: tumors derived from type MiPaca2 human pancreatic cancer cells; experiment: MiPaca2 human pancreatic cancer tumor model in nude mice; assay type: in vivo
Description: A combination of glufosfamide and gemcitabine was administered to nude mice that were carrying tumors derived from type MiPaca2 human pancreatic cancer cells. Mice were administered doses of vehicle control, gemcitabine, glufosfamide, or gemcitabine/glufosfamide combinations as tabulated in Table 1 below (10 mice/group). Glufosfamide was administered i.v., daily for 14 days (Groups 1-4 and 7-12). Gemcitabine was administered at 300 mg/kg, i.p., once a week for three weeks (Groups 6 and 10-12). Gemcitabine was administered at 150 mg/kg, i.p., twice a week for three weeks (Groups 5 and 7-9).

[4] = test system: advanced pancreatic cancer; conditions: patients with advanced pancreatic cancer; cited from earlier work
[5] = test system: pancreatic cancer cell lines; conditions: in vitro; cited from earlier work

SMILES | inhibitory effect on tumor progression ([1]; gemcitabine alone 1.25 mg/kg i.p. once daily for 7 days) | inhibitory effect on tumor growth [2] | onset of tumor growth compared with gemcitabine alone or vehicle control ([1]; glufosfamide 10 mg/kg i.v. once daily for 7 days) | reduction in tumor size ([3]; Group 3: glufosfamide 30 mg/kg i.v. daily for 14 days) | reduction in tumor size ([3]; Group 4: glufosfamide 100 mg/kg i.v. daily for 14 days) | activity in patients [4] | activity against pancreatic cancer cell lines [5]
Nc1ccn([C@@H]2O[C@H](CO)[C@@H](O)C2(F)F)c(=O)n1 [gemcitabine, 2′-deoxy-2′,2′-difluoro-cytidine] | only a marginal inhibitory effect | no apparent inhibitory effect on tumor growth |  |  |  |  | 
O=P(NCCCl)(NCCCl)O[C@@H]1O[C@H](CO)[C@@H](O)[C@H](O)[C@H]1O [glufosfamide, β-D-glucosyl-ifosfamide mustard] |  | no apparent inhibitory effect on tumor growth | dramatic delay in the onset of tumor growth | modest reduction in tumor size | modest reduction in tumor size |  | 
Nc1nc2[nH]cc(CCc3ccc(C(=O)N[C@@H](CCC(=O)O)C(=O)O)cc3)c2c(=O)[nH]1 [pemetrexed] |  |  |  |  |  | has shown activity | active
